Measurements: PMC11284788, “NN1213 – A Potent, Long-Acting, and Selective Analog of Human Amylin” (Journal of Medicinal Chemistry, 2024)
≈ marks a conversion by molar mass, not a printed value. Like-named read-outs stand apart in the source and are kept apart here. Numbered stars: 1 amine (or outer) side, 2 acyl side, 3 side chain; on linkers, the order of the positions; unused ones are H or OH. Bridge positions count the residues as written; N and C are the ends. Side chains are listed from the residue outwards. Peptide text beside a SMILES is read from it. * marks the point of attachment. C20 diacid = O=C(O)CCCCCCCCCCCCCCCCCCC(=O)*; γGlu = O=C(O)[C@H](CCC(=O)[*:2])N[*:1]

Columns and labels:
rCTR = target: T1, rCTR (Rattus norvegicus, UniProt P32214); test: scintillation proximity binding assay, rCTR membranes
T1 construct: expressed in transfected cells; host or cells: BHK tk-ts 13, transient (FuGENE 6)
T1 sequence (P32214 25-479 isoform P32214-2 limits assumed): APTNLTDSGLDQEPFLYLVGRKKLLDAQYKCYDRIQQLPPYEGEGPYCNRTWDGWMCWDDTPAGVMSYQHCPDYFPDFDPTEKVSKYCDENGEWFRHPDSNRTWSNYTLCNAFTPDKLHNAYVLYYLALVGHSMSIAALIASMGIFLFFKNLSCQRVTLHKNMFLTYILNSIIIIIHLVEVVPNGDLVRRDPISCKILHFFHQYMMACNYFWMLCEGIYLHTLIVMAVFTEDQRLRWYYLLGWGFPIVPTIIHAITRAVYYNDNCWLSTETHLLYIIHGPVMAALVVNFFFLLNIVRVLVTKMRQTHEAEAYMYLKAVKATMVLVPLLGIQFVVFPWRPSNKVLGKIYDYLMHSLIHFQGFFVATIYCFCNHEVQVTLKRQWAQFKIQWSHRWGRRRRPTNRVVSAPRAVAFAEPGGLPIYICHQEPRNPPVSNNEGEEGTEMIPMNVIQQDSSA
Protocol: (§1) The apparent binding affinities were determined using a scintillation proximity assay with beads from PerkinElmer and cell membranes containing the AMY3R or CTRs. […] Membranes were harvested and membranes were prepared and kept at −80 °C until use. The assay was performed in a 384-well Optiplate (PerkinElmer). Membranes were mixed with scintillation proximity assay beads in a 1:1 ratio. […] Samples were analyzed on a TopCounter (Packard). The IC50 values were calculated using GraphPad Prism. See Supporting Information S7: SAR Screening Assay Methods (Binding Assays (Human and Rat)) for more information.
(§2) Binding Assays (Human and Rat). Brief descriptions of the methods used to determine binding affinities for SAR analysis are described below. Curves and IC50 values were plotted and calculated in GraphPad Prism using nonlinear regression (one site binding competition analysis), with pIC50 values […]
(§3) values were used to calculate the binding affinity ratios in order to express the selectivity of compounds for the AMY3R versus the CTR.
(§4) CTR Binding Assay. The binding assay was performed using scintillation proximity assay (SPA) beads (RPNQ0001) from PerkinElmer and cell membranes containing either the hCTR or rCTR. BHK […]
(§5) Membranes were prepared in the following way: the cells were rinsed with PBS and incubated with Versene for approximately 5 min before harvesting. The cells were flushed with PBS and the cell-suspension was centrifuged for 5 min at 1000 rpm. Cells were homogenized (Ultra Turrax) in a buffer […]
(§6) containing 20 mM Na-HEPES and 0.1 mM EDTA (pH 7.4, buffer 2). The resulting pellet was re-suspended in buffer 2 and protein concentration was measured (BCA protein assay, Pierce). The homogenate was kept cold during the whole procedure. The membranes were stored at –80 °C until […]
(§7) The binding assay was performed in a 384-well Optiplate (PerkinElmer) in a total volume of 40 μL.
(§8) Membranes were mixed with SPA beads in a 1:1 ratio. […]
(§9) mg/well. Test compounds were dissolved in DMSO and further diluted in assay buffer (50 mM HEPES, pH 7.4, 1 mM CaCl2, 5 mM MgCl2, 0.1% ovalbumin, and 0.02% Tween-20).
(§10) Calcitonin (NEX422 PerkinElmer) was dissolved in assay buffer and added to the Optiplate at a final […]
(§11) prior to centrifugation (1500 rpm, 10 min). Samples were analyzed on TopCounter (Packard).

[1] = Solubility versus pH profile
[2] = HMWP content by size-exclusion chromatography; format: physicochemical; conditions: covalent dimers and polymers prior to fibril formation testing, SEC, % of total absorbance area at 215 nm
Outline: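 Amylin analogs analysed before fibril-formation testing by isocratic SEC in 0.5 M NaCl, 10 mM sodium dihydrogen phosphate, 5 mM ortho-phosphoric acid, 50% (v/v) 2-propanol. HMWP (covalent dimers/polymers) given as peak absorbance area percentage of total, assuming equal extinction coefficients for HMWP and main peak.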

hCTR = target: T2, hCTR (Homo sapiens, UniProt P30988); test: scintillation proximity binding assay, hCTR membranes; parameters: expressed in transfected cells; host or cells: BHK tk-ts 13, transient (FuGENE 6); membranes for the SPA, whole cells for the species-specific assays
T2 sequence (P30988 25-474): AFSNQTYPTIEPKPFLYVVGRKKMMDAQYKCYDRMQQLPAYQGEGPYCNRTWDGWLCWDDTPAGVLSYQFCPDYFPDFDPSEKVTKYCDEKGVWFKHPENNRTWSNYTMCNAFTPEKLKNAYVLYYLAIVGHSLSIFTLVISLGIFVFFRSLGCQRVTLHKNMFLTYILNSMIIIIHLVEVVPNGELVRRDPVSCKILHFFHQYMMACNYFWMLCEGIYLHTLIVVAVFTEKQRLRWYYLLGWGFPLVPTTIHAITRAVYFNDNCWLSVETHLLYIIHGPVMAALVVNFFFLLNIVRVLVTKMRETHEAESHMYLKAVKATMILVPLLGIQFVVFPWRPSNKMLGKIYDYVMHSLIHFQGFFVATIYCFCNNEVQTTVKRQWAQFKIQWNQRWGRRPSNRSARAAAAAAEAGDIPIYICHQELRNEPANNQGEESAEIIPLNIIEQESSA
Protocol: as §1, §2, §3, §4, §5, §6, §7, §8, §9, §10, §11

rat AMY3R = target: T3, rat AMY3R (Rattus norvegicus, UniProt P32214+Q9JJ73); test: cAMP FlashPlate assay, rat AMY3R; format: cell-based; conditions: for EC50: cAMP (rat receptor assay)
T3 construct: expressed in transfected cells; host or cells: BHK tk-ts 13, transient co-transfection (FuGENE 6)
T3 sequence (P32214 25-479 isoform P32214-2 limits assumed): T1 sequence (P32214 25-479 isoform P32214-2 limits assumed)
T3 sequence (Q9JJ73 23-147 partner): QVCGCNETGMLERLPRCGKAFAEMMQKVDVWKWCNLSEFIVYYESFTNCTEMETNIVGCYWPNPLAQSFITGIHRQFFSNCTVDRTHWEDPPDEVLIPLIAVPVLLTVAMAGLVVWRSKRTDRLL

[3] = SPA binding assay, Tables S13 and S15, read-out: rCTR pIC50 (converted)
[4] = SPA, BHK cell membranes, 125I-Calcitonin 75 pM, 120 min 25 °C, read-out: rCTR IC50
[5] = bis-tris-propane buffer, pH 6, aqueous buffer
[6] = bis-tris-propane buffer, pH 6.5, aqueous buffer
[7] = bis-tris-propane buffer, pH 7, aqueous buffer
[8] = bis-tris-propane buffer, pH 7.5, aqueous buffer
[9] = bis-tris-propane buffer, pH 8, aqueous buffer
[10] = lactate buffer, pH 4, aqueous buffer
[11] = lactate buffer, pH 5, aqueous buffer
[12] = SPA binding assay, Tables S13 and S15, read-out: hCTR pIC50 (converted)
[13] = SPA, BHK cell membranes, 125I-Calcitonin 75 pM, 120 min 25 °C, read-out: hCTR IC50

IC50 (rCTR; [3]) [nM]	IC50 (rCTR; [4]) [nM]	solubility kinetic [1, 5] [µM]	solubility kinetic [1, 6] [µM]	solubility kinetic [1, 7] [µM]	solubility kinetic [1, 8] [µM]	solubility kinetic [1, 9] [µM]	solubility kinetic [1, 10] [µM]	solubility kinetic [1, 11] [µM]	HMWP ([2]; analogs 1–9 (pH 7.5 series)) [%]	IC50 (hCTR; [12]) [nM]	IC50 (hCTR; [13]) [nM]	EC50 (rat AMY3R; Tables S12 and S14, read-out: rAMY3R pEC50 (converted)) [nM]	EC50 (rat AMY3R; transiently transfected BHK tk-ts 13 cells, FlashPlate, 30 min room temperature, 2% HSA, read-out: rAMY3R EC50) [nM]	ratio rCTR/rAMY3R (rat AMY3R; ratio of cAMP EC50 values)	HMWP ([2]; analogs 10–21 (pH 4.0 series)) [%]	SMILES
355	356	1 (≈ 4.55 µg/mL)	1 (≈ 4.55 µg/mL)	1 (≈ 4.55 µg/mL)	1 (≈ 4.55 µg/mL)	2 (≈ 9.11 µg/mL)	1 (≈ 4.55 µg/mL)	1 (≈ 4.55 µg/mL)	24	74.1	74.1	–	–	–	–	CC[C@H](C)[C@H](NC(=O)[C@@H]1CCCN1C(=O)CNC(=O)[C@H](Cc1ccccc1)NC(=O)[C@H](CC(N)=O)NC(=O)[C@@H]1CCCN1C(=O)[C@H](CO)NC(=O)[C@H](CO)NC(=O)[C@H](Cc1c[nH]cn1)NC(=O)[C@H](CCCNC(=N)N)NC(=O)[C@H](CC(C)C)NC(=O)[C@H](Cc1ccccc1)NC(=O)[C@H](CC(=O)O)NC(=O)[C@H](C)NC(=O)[C@H](CC(C)C)NC(=O)[C@H](CCCNC(=N)N)NC(=O)[C@H](CCC(N)=O)NC(=O)[C@@H](NC(=O)[C@H](C)NC(=O)[C@@H]1CSSC[C@H](NC(=O)[C@@H](N)CCCCNC(=O)CC[C@H](NC(=O)CC[C@H](NC(=O)CCCCCCCCCCCCCCCCCCC(=O)O)C(=O)O)C(=O)O)C(=O)N[C@@H](CC(N)=O)C(=O)N[C@@H]([C@@H](C)O)C(=O)N[C@@H](C)C(=O)N[C@@H]([C@@H](C)O)C(=O)N1)[C@@H](C)O)C(=O)N[C@@H](CC(C)C)C(=O)N[C@@H](CO)C(=O)N[C@@H](CO)C(=O)N[C@H](C(=O)N[C@@H](CC(N)=O)C(=O)N[C@H](C(=O)NCC(=O)N[C@@H](CO)C(=O)N[C@@H](CC(=O)O)C(=O)N[C@H](C(=O)N[C@@H](Cc1ccc(O)cc1)C(N)=O)[C@@H](C)O)C(C)C)[C@@H](C)O [Peptide 3] (H-K([γGlu-γGlu-C20 diacid])CNTATCATQRLADFLRHSSPNFGPILSSTNVGSDTY-NH2; disulfide 2-7)
105	106	≥ 200	≥ 200	≥ 200	≥ 200	≥ 200	≥ 200	172 (≈ 776 µg/mL)	7	30.2	30.2	–	–	–	–	CC(C)C[C@H](NC(=O)[C@H](CCCNC(=N)N)NC(=O)[C@H](CCC(N)=O)NC(=O)[C@@H](NC(=O)[C@H](C)NC(=O)[C@@H]1CSSC[C@H](NC(=O)[C@@H](N)CCCCNC(=O)CC[C@H](NC(=O)CC[C@H](NC(=O)CCCCCCCCCCCCCCCCCCC(=O)O)C(=O)O)C(=O)O)C(=O)N[C@@H](CC(N)=O)C(=O)N[C@@H]([C@@H](C)O)C(=O)N[C@@H](C)C(=O)N[C@@H]([C@@H](C)O)C(=O)N1)[C@@H](C)O)C(=O)N[C@@H](C)C(=O)N[C@@H](CC(=O)O)C(=O)N[C@@H](Cc1ccccc1)C(=O)N[C@@H](CC(C)C)C(=O)N[C@@H](CCCNC(=N)N)C(=O)N[C@@H](Cc1c[nH]cn1)C(=O)N[C@@H](CO)C(=O)N[C@@H](CO)C(=O)N1CCC[C@H]1C(=O)N[C@@H](CC(N)=O)C(=O)N[C@@H](Cc1ccccc1)C(=O)NCC(=O)N[C@@H](C)C(=O)N1CCC[C@H]1C(=O)N[C@@H](CC(C)C)C(=O)N[C@@H](CO)C(=O)N[C@@H](CO)C(=O)N[C@H](C(=O)N[C@@H](CC(N)=O)C(=O)N[C@H](C(=O)NCC(=O)N[C@@H](CO)C(=O)N[C@@H](CC(=O)O)C(=O)N[C@H](C(=O)N[C@@H](Cc1ccc(O)cc1)C(N)=O)[C@@H](C)O)C(C)C)[C@@H](C)O [Peptide 5] (H-K([γGlu-γGlu-C20 diacid])CNTATCATQRLADFLRHSSPNFGAPLSSTNVGSDTY-NH2; disulfide 2-7)
51.3	51.4	≥ 200	≥ 200	≥ 200	≥ 200	≥ 200	≥ 200	≥ 200	–	12	11.9	1.29	1.29	13	2.6	CC[C@H](C)[C@H](NC(=O)[C@H](C)NC(=O)CNC(=O)[C@H](Cc1ccccc1)NC(=O)[C@H](CC(N)=O)NC(=O)[C@@H]1CCCN1C(=O)[C@H](CO)NC(=O)[C@H](CO)NC(=O)[C@H](Cc1c[nH]cn1)NC(=O)[C@H](CCCNC(=N)N)NC(=O)[C@H](CC(C)C)NC(=O)[C@H](Cc1ccccc1)NC(=O)[C@H](CC(N)=O)NC(=O)[C@H](C)NC(=O)[C@H](CC(C)C)NC(=O)[C@H](CCCNC(=N)N)NC(=O)[C@H](CCC(N)=O)NC(=O)[C@@H](NC(=O)[C@H](C)NC(=O)[C@@H]1CSSC[C@H](NC(=O)[C@H](CCCCN)NC(=O)CC[C@H](NC(=O)CCCCCCCCCCCCCCCCCCC(=O)O)C(=O)O)C(=O)N[C@@H](CC(N)=O)C(=O)N[C@@H]([C@@H](C)O)C(=O)N[C@@H](C)C(=O)N[C@@H]([C@@H](C)O)C(=O)N1)[C@@H](C)O)C(=O)N1CCC[C@H]1C(=O)N[C@@H](CO)C(=O)N[C@@H](CO)C(=O)N[C@H](C(=O)N1CCC[C@H]1C(=O)N[C@H](C(=O)NCC(=O)N[C@@H](CO)C(=O)N[C@@H](CCC(=O)O)C(=O)N[C@H](C(=O)N[C@@H](Cc1ccc(O)cc1)C(N)=O)[C@@H](C)O)C(C)C)[C@@H](C)O [Peptide 11] ({C20 diacid-γGlu}-KCNTATCATQRLANFLRHSSPNFGAIPSSTPVGSETY-NH2; disulfide 2-7)
